The values below come from patent publication US12180226B2, “Spirotricycle RIPK1 inhibitors and methods of uses thereof” (Merck Sharp & Dohme LLC, priority 2021, dated 2024).

Structures can show the parent of a compound that is named as a salt.

For this assay, the target named is RIPK1 (recombinant GST-RIPK1 kinase domain, residues 1-327) (Homo sapiens (Human), UniProt Q13546). Briefly: RIPK1-ADP-Glo Enzymatic Assay. The conditions noted are these: ADP-Glo; 25 nM GST-RIPK1, 300 μM ATP; assay lower limit ~25 nM; read-out: RIPK1 V0 Ec50. The assay is classed as biochemical. In outline:
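Using dephosphorylated MBP (3 μM) as substrate and 300 μM ATP, 25 nM baculovirus-produced enzyme was reacted for 150 min after a 30-min compound pre-incubation. Luminescent ADP detection followed; lower confidence limit ~25 nM.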

Sequence of RIPK1 (recombinant GST-RIPK1 kinase domain, residues 1-327) (Q13546 1-327): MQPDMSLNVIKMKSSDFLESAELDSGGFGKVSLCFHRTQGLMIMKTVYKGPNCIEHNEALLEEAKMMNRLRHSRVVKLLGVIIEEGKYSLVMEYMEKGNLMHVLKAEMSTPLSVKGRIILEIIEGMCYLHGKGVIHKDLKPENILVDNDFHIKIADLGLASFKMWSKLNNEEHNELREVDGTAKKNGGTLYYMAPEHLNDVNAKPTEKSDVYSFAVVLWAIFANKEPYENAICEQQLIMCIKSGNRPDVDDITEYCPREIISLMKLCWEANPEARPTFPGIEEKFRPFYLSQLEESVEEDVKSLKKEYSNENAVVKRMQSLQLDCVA

For the compound `O=C(c1onc2ccccc12)N1CCC2(CC1)O[C@@H]1CC[C@@H](c3cc(F)cc(F)c3)N1C2=O` [Example 6.50, (5′S,7a′R)-1-(2,1-benzoxazole-3-carbonyl)-5′-(3,5-difluorophenyl)tetra-hydro-3′H-spiro [piperidine-4,2′-pyrrolo[2,1-b][1,3]oxazol]-3′-one], the EC50 is below 25 nM.
As to `O=C1N2[C@@H](CC[C@H]2c2ccccc2F)OC12CCN(c1ccnc3ccnn13)CC2` [Example 4.103, (5′S,7a′R)-5′-(2-fluorophenyl)-1-(pyrazolo[1,5-a]pyrimidin-7-yl)tetrahydro-3′H-spiro[piperidine-4,2′-pyrrolo[2,1-b]oxazol]-3′-one], the EC50 is below 25 nM.
With `COC1(C)CN(C(=O)c2nc(N3CCC4(CC3)O[C@@H]3CC[C@@H](c5cc(F)cc(F)c5)N3C4=O)ncc2F)C1` [Example 7.6, (5′S,7a′R)-5′-(3,5-difluorophenyl)-1-[5-fluoro-4-(3-methoxy-3-methylazetidine-1-carbonyl)pyrimidin-2-yl]tetrahydro-3′H-spiro[piperidine-4,2′-pyrrolo[2,1-b][1,3]oxazol]-3′-one] the figure was 271 nM; with `Cc1cccc(CN2CCC3(CC2)O[C@@H]2CC[C@@H](c4cc(F)cc(F)c4)N2C3=O)c1` [Example 22.4, (5′S,7a′R)-5′-(3,5-difluorophenyl)-1-[(3-methylphenyl)methyl] tetrahydro-3′H-spiro[piperidine-4,2′-pyrrolo[2,1-b][1,3]oxazol]-3′-one], 701 nM.
Next, `N#Cc1ccc(N2CCC3(CC2)O[C@@H]2CC[C@@H](c4cc(F)cc(F)c4)N2C3=O)c(F)c1` [Example 4.24, 4-[(5′S,7a′R)-5′-(3,5-difluorophenyl)-3′-oxotetrahydro-1H,3′H-spiro[piperidine-4,2′-pyrrolo[2,1-b] [1,3]oxazol]-1-yl]-3-fluorobenzonitrile]: below 25 nM.
For `O=C(c1cc(F)ccc1F)N1CCC2(CC1)O[C@@H]1CC[C@@H](c3ccccc3F)N1C2=O` [Example 1.12, (5′S,7a′R)-1-(2,5-difluorobenzoyl)-5′-(2-fluorophenyl)tetrahydro-3′H-spiro[piperidine-4,2′-pyrrolo[2,1-b]oxazol]-3′-one], the EC50 was below 25 nM.
With `O=C(c1cnc(C(F)F)cn1)N1CCC2(CC1)O[C@@H]1CC[C@@H](c3cc(F)cc(F)c3)N1C2=O` [Example 6.84, (5′S,7a′R)-1-[5-(difluoromethyl)pyr-azine-2-carbonyl]-5′-(3,5-difluorophenyl)-tetrahydro-3′H-spiro [piperidine-4,2′-pyrrolo[2,1-b][1,3]-oxazol]-3′-one] the figure was 405 nM.
With `Cc1ncc(C(=O)N2CCC3(CC2)O[C@@H]2CC[C@@H](c4cc(F)cc(F)c4)N2C3=O)cn1` [Example 6.77, (5′S,7a′R)-5′-(3,5-difluorophenyl)-1-(2-methylpyrimidine-5-carbonyl)tetrahydro-3′H-spiro[piperidine-4,2′-pyrrolo[2,1-b] [1,3]oxazol]-3′-one] the figure was 572 nM.
With `N#Cc1cscc1[C@@H]1CC[C@H]2OC3(CCN(C(=O)c4ccccc4)CC3)C(=O)N21` [Example 17.13, 4-((5′S,7a′R)-1-benzoyl-3′-oxotetrahydro-3′H-spiro[piperidine-4,2′-pyrrolo[2,1-b]oxazol]-5′-yl)thiophene-3-carbonitrile] the figure was 208 nM.
For `O=C1N2[C@@H](CC[C@H]2c2ccccc2)OC12CCN(c1cccc3ncnn13)CC2F` (single isomer, unassigned) [Example 13.18, (3[S or R], 4 [R or S], 5′S,7a′R)-1-([1,2,4]triazolo[1,5-a]pyridin-5-yl)-3-fluoro-5′-phenyltetrahydro-3′H-spiro[piperidine-4,2′-pyrrolo[2,1-b]oxazol]-3′-one, TFA salt], the EC50 was below 25 nM.
`O=C1N2[C@@H](CC[C@H]2c2cc(F)cc(F)c2)OC12CCN(c1ccc(F)c3ccnn13)CC2` [Example 16.1, (5′S,7a′R)-5′-(3,5-difluorophenyl)-1-(4-fluoropyrazolo[1,5-a]pyridin-7-yl)tetrahydro-3′H-spiro[piperidine-4,2′-pyrrolo[2,1-b]oxazol]-3′-one, TFA salt]: the EC50 was below 25 nM.
For `O=C1N2[C@@H](CC[C@H]2c2ccccc2)OC12CCN(c1ccc(-n3ccnc3)nn1)CC2` [Example 11.18, (5′S,7a′R)-1-[6-(1H-imidazol-1-yl)pyridazin-3-yl]-5′-phenyltetrahydro-3′H-spiro[piperidine-4,2′-pyrrolo[2,1-b][1,3]oxazol]-3′-one], the 50% effective concentration (EC50) was found to be 93 nM.
For the compound `O=C(c1cccnc1)N1CCC2(CC1)O[C@@H]1CC[C@@H](c3cc(F)cc(F)c3)N1C2=O` [Example 5.64, (5′S,7a′R)-5′-(3,5-difluoro-phenyl)-1-nicotinoyltetra-hydro-3′H-spiro[piperidine-4,2′-pyrrolo[2,1-b]oxazol]-3′-one], the EC50 was found to be 38.8 nM.
With `NC(=O)c1ccc(N2CCC3(CC2)O[C@@H]2CC[C@@H](c4ccccc4)N2C3=O)n2ncnc12` [Example 4.212, 5-[(5′S,7a′R)-3′-oxo-5′-phenyltetrahydro-1H,3′H-spiro[piperidine-4,2′-pyrrolo[2,1-b] [1,3]oxazol]-1-yl] [1,2,4]triazolo[1,5-a] pyridine-8-carboxamide], the EC50 was below 25 nM.
Consider `CS(=O)(=O)C1CN(C(=O)c2nc(N3CCC4(CC3)O[C@@H]3CC[C@@H](c5cc(F)cc(F)c5)N3C4=O)ncc2F)C1` [Example 7.9, (5′S,7a′R)-5′-(3,5-difluorophenyl)-1-{5-fluoro-4-[3-(methylsulfonyl)azetidine-1-carbonyl]pyrimidin-2-yl}tetrahydro-3′H-spiro[piperidine-4,2′-pyrrolo[2,1-b][1,3]oxazol]-3′-one], for which the EC50 is 72.6 nM.
With `O=C1N2[C@@H](CC[C@H]2c2cncc(F)c2)OC12CCN(c1ccnc3c(F)cnn13)CC2` [Example 4.84, (5′S,7a′R)-1-(3-fluoropyrazolo[1,5-a]pyrimidin-7-yl)-5′-(5-fluoropyridin-3-yl)tetrahydro-3′H-spiro[piperidine-4,2′-pyrrolo[2,1-b]oxazol]-3′-one, TFA salt] the figure was 29.3 nM; with `O=C(c1ncccc1F)N1CCC2(CC1)O[C@@H]1CC[C@@H](c3cc(F)cc(F)c3)N1C2=O` [Example 6.54, (5′S,7a'R)-5′-(3,5-difluorophenyl)-1-(3-fluoropyridine-2-carbonyl)tetrahydro-3′H-spiro[piperidine-4,2′-pyrrolo[2,1-b] [1,3]oxazol]-3-one], 45.1 nM.
With `O=C(c1cc(F)c(F)cc1F)N1CCC2(CC1)O[C@@H]1CC[C@@H](c3cc(F)cc(F)c3)N1C2=O` [Example 5.4, (5′S,7a′R)-5′-(3,5-difluoro-phenyl)-1-(2,4,5-trifluoro-benzene-1-carbonyl)tetra-hydro-3′H-spiro[piperi-dine-4,2′-pyrrolo[2,1-b] [1,3]oxazol]-3′-one], the EC50 was below 25 nM.
With `O=C1N2[C@@H](CC[C@H]2c2cc(F)cc(F)c2)OC12CCN(S(=O)(=O)c1ccccc1)CC2` [Example 8.1, (5′S,7a′R)-5′-(3,5-Difluorophenyl)-1-(phenylsulfonyl)tetrahydro-3′H-spiro[piperidine-4,2′-pyrrolo[2,1-b]oxazol]-3′-one] the figure was 728 nM.
